In US20030202977A1, “Treatment of osteoarthritis” (New York University, priority 1998, published 2003):
Marks after values point to notes of the source that are not given here. Values belong to the molecule of their own block, whether it stands above or below them.

How the values were obtained:
[1] = tested on: human osteoarthritis-affected cartilage; assay: Osteoarthritis-explant assay: release of inflammatory mediators from cartilage organ cultures; format: cell-based; details: for Effect on PGE2 production / Effect on NO production/accumulation: osteoarthritis-affected cartilage; for Effect on NO production/accumulation: compared to control cartilage; for Nitrite / PGE2: per 100 mg cartilage, 72 hours post stimulation, mean ± S.D., n=3; for Nitrite: JBS5 0.5 μg/ml, αvβ3 Abs 5 μg/ml, L-NMMA 500 μM, IL-1β 1 ng/ml, RGD or RGE 1 mg/ml, control 1.2 ± 0.2; for PGE2: control 13.1 ± 0.2
Description: ELISA kits for IL-1β, IL-6 and IL-8 were purchased from R and D (Minneapolis, Minn.). Cyclic RGD and RGE peptides were procured form Bachem Biosciences, Inc. (King of Prussia, Pa.). Anti-αvβ3 (JBS5) and anti-3 (LM609) were purchased from Chemicon International (Temecula, Calif.). Another anti-αvβ3 antibody (mAb13) was a generous gift from Dr. Yamada (NIH, Bethesda, Md.).
Cartilage slices were taken from the knees of patients who had been diagnosed with advanced osteoarthritis, ages 50-70 years, who were undergoing knee replacement surgery. Non-arthritic knee cartilage, normal control, ages 20-70 years, was obtained from patients with fractures or from accident victims after knee amputation.
Knee articular cartilage from osteoarthritis patients or normal individuals was cut into 3 mm discs, and 4-6 discs were placed (triplicate or quadruplicate) into a 24-well plate containing 2 ml F-12 medium+0.1% human albumin in the presence or absence of anti-αvβ3 (JBS5) or anti-3 (LM609) antibodies along with various modulators, as previously described by Amin et al (1995 and 1997).
(§1) NO production was measured by estimating the stable NO metabolite, nitrite, in condition medium by modified Griess reaction, Gilliam et al (1993). PGE2 was analyzed from supernatant by RIA, Amin et al (1997).
OA-affected cartilage was incubated in the medium with various modulators: 0.5 μg/ml of α5β1 (JBS5), 5 μg/ml αvβ3 Abs, L-NMMA (500 μM), IL-1β (1 ng/ml), 1 mg/ml of RGD or RGE. The accumulation of IL-1β, IL-8, IL-6, nitrite and PGE2 were estimated 72 hours post stimulation. Data represents±S.D. where n=3. The P values described are compared with the (control) unstimulated OA-affected cartilage. The data represent one of the two similar experiments.

[2] = tested on: primary bovine chondrocytes; assay: NO and PGE2 production in primary bovine chondrocytes; format: cell-based
Procedure: Bovine chondrocytes were seeded in 24 well plates at a density of 0.5×10^6 cells/well in 2 ml medium. After 24 hours post-seeding, the cells were treated with either 50 ng of JBS5 monoclonal antibody or 1 ng/ml IL-1β alone and in the presence and absence of 0.5 μg/ml of sIL-1RII for 72 hours. NO and PGE2 were estimated as described in Materials and Methods. The data present one of the two similar experiments. Data represent mean±s.d. value. The p values described are compared with IL-l (*) or anti-α5β1 monoclonal antibody (**); *p≦0.01, **p≦0.01.
Bovine chondrocytes were seeded in 24 well plates and stimulated with 1 ng/ml Il-1β, 100 μg/ml LPS, IL-1β+LPS+TNFα and anti-α5β1 monoclonal antibody in the presence or absence of 5 μg/ml anti-αvβ3. The accumulation of NO and PGE2 was estimated at the end of 72 hours. The data represent one of the two similar experiments the data represent mean±s.d. value.
Bovine chondrocytes were isolated as previous described by Attur et al 1998. Briefly, cartilage slices from bovine cartilage were finely minced and digested sequentially with 0.2% testicular hyaluronidase for five minutes at 37° C., and 0.2% collagenase for 1-2 hours at 37° C. After being strained through sterile nylon mesh, the cells were centrifuged at 1200×g for ten minutes. The cell pellets were washed twice with Ham's F-12 medium, followed by resuspension and centrifuging at 1000×g for ten minutes. Finally, the pellets were suspended in complete F-12 medium before being plated to flasks.
as §1

[3] = target: α5β1 integrin of human cartilage chondrocytes (human) (UniProt P08648); assay: cell-based or functional assay
chondrocytes = assay: Nitric oxide versus PGE2 production in chondrocytes; format: cell-based

Sequence of UniProt P08648 (P08648 42-1049, chain 1 of 2): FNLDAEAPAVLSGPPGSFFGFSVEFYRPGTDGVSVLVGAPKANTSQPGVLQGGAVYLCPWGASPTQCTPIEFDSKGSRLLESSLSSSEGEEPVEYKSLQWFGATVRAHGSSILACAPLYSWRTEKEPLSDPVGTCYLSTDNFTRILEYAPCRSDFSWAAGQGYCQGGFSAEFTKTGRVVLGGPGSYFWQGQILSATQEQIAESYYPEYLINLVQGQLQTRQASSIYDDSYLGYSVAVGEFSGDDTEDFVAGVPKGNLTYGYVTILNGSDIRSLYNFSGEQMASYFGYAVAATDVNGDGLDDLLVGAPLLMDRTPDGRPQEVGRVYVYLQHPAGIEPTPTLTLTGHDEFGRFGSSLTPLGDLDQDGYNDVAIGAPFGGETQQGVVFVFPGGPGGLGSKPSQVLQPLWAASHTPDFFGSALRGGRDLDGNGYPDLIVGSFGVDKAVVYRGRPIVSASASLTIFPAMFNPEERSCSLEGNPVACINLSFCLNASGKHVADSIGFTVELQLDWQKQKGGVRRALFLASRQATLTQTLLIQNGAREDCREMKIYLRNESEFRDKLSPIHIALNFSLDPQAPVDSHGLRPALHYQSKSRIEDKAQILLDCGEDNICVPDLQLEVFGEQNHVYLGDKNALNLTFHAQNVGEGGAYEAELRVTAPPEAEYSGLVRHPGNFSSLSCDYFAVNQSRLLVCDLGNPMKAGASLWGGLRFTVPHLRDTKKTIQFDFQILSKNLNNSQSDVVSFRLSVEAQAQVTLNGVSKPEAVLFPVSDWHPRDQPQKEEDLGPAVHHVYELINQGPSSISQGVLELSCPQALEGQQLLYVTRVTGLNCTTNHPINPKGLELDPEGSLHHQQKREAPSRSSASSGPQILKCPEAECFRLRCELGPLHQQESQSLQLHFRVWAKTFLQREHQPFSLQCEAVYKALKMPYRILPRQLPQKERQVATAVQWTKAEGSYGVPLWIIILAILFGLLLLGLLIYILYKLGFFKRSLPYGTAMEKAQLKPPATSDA
Sequence of UniProt P08648 (P05556 21-798, chain 2 of 2, further chain): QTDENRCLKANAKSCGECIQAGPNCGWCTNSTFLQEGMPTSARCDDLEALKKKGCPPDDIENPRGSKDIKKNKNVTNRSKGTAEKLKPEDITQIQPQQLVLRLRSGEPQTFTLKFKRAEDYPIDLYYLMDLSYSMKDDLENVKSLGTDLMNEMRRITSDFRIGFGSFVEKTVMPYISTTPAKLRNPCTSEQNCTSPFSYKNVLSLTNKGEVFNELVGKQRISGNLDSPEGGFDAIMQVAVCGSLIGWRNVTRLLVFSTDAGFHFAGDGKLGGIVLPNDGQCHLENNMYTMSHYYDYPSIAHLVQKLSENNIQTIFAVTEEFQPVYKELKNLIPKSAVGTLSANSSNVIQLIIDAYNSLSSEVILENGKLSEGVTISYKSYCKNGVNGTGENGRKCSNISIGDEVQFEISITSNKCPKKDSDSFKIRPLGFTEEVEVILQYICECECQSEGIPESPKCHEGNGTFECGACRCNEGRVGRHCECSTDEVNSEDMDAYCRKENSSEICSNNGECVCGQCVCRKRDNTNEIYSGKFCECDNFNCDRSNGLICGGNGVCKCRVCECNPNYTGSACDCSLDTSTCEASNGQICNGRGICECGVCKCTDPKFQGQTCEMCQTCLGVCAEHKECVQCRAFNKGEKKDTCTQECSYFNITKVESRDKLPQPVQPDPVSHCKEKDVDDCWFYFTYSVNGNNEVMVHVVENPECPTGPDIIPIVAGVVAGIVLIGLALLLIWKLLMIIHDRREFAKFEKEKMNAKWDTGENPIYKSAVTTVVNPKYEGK

Molecule: CNC(=N)NCCC[C@H](N)C(=O)O [NMMA]
Effect on PGE2 production [1]: augmented | Effect on NO production/accumulation [1]: inhibition | Nitrite [1]: 0.8 ± 0.1^c μM | PGE2 [1]: 18.4 ± 0.8^c ng/ml

Molecule: IL-1β: cytokine used as positive control, 1 ng/ml
Effect on NO and PGE2 (inflammatory mediator) production, substance added as modulator ([2]; primary bovine chondrocytes): up-regulation | Effect on PGE2 production [1]: augmented | Effect on NO production/accumulation [1]: augmented | Nitrite [1]: 17.3 ± 2.4^a μM | PGE2 [1]: 29.6 ± 7.2^c ng/ml

IL-1β, human OA-affected cartilage explants, 72 h, 0.5 µg/ml JBS5 (pg/ml per 100 mg cartilage) [3]: 87.6 | IL-6, human OA-affected cartilage explants, 72 h, 0.5 µg/ml JBS5 (ng/ml per 100 mg cartilage) [3]: 17.7 | IL-8, human OA-affected cartilage explants, 72 h, 0.5 µg/ml JBS5 (ng/ml per 100 mg cartilage) [3]: 17.7 | Nitrite, human OA-affected cartilage explants, 72 h, 0.5 µg/ml JBS5 (µM per 100 mg cartilage) [3]: 12.7 | PGE2, human OA-affected cartilage explants, 72 h, 0.5 µg/ml JBS5 (ng/ml per 100 mg cartilage) [3]: 19.1
Molecule: JBS5 monoclonal antibody

Molecule: osteopontin: soluble secretory phosphoprotein, ligand of αvβ3
Inhibition of PGE2 production relative to nitric oxide production (chondrocytes): equally inhibit | Effect on NO production/accumulation [1]: inhibited

B1: sIL-1RII: recombinant soluble type II IL-1 receptor cloned from human neutrophils, released from Sf9 insect cells (protein)
chain: FTLQPAAHTGAARSCRFRGRHYKREFRLEGEPVALRCPQVPYWLWASVSPRINLTWHKNDSARTVPGEEETRMWAQDGALWLLPALQEDSGTYVCTTRNASYCDKMSIELRVFENTDAFLPFISYPQILTLSTSGVLVCPDLSEFTRDKTDVKIQWYKDSLLLDKDNEKFLSVRGTTHLLVHDVALEDAGYYRCVLTFAHEGQQYNITRSIELRIKKKKEETIPVIISPLKTISASLGSRLTIPCKVFLGTGTPLTTMLWWTANDTHIESAYPGGRVTEGPRQEYSENNENYIEVPLIFDPVTREDLHMDFKCVVHNTLSFQTLRTTVKE
Effect on IL-1β induced accumulation of NO and PGE2 ([2]; preincubation of cells for fifteen minutes): blocked | Effect on anti-αvβ3 monoclonal antibody induced production of NO and PGE2 ([2]; preincubation of cells for fifteen minutes, inducer is JBS5): blocked | Effect on production of IL-1, nitric oxide, PGE2, IL-6, IL-8 and MMPs ([1]; human arthritis affected cartilage, ex vivo, in the presence or absence of IL-1): inhibits | Effect on IL-1β and JBS5 monoclonal antibody induced NO and PGE2 production ([1]; osteoarthritis cartilage explants, FIG. 1b): inhibited significantly
